Legend:
Test in all cases: biochemical
Assay type in all cases: binding
[1] = target: T1, panel of 442 kinases (Homo sapiens, UniProt Q86UX6); conditions: kinase YANK3; for remaining activity at 1 µM: read-out: YANK3 (% of control at 1 µM)
T1 construct: purchased Ambit Biosciences (scanMAXX KINOMEscan)

[2] = target: T2, panel of 442 kinases (Homo sapiens, UniProt Q8IW41); conditions: kinase MAPKAPK5; for remaining activity at 1 µM: read-out: % of control at 1 µM
T2 construct: purchased Ambit Biosciences (scanMAXX KINOMEscan)
T2 sequence (Q8IW41 1-473): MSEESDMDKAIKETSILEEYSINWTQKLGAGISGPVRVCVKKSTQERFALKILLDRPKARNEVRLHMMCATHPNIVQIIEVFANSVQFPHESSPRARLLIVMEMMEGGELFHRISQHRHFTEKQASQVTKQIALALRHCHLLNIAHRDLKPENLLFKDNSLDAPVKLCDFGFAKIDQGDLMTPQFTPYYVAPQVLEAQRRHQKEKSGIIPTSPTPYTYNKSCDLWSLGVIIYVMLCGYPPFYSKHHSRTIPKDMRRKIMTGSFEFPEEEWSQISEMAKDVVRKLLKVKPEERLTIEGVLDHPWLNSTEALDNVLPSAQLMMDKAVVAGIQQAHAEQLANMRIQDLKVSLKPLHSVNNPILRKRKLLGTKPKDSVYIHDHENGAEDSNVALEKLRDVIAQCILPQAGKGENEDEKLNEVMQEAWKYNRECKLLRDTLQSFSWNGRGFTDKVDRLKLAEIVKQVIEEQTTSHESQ

[3] = target: T3, panel of 442 kinases (Homo sapiens, UniProt O95747); conditions: kinase OSR1; for remaining activity at 1 µM: read-out: % of control at 1 µM
T3 construct: purchased Ambit Biosciences (scanMAXX KINOMEscan)
T3 sequence (O95747 whole entry): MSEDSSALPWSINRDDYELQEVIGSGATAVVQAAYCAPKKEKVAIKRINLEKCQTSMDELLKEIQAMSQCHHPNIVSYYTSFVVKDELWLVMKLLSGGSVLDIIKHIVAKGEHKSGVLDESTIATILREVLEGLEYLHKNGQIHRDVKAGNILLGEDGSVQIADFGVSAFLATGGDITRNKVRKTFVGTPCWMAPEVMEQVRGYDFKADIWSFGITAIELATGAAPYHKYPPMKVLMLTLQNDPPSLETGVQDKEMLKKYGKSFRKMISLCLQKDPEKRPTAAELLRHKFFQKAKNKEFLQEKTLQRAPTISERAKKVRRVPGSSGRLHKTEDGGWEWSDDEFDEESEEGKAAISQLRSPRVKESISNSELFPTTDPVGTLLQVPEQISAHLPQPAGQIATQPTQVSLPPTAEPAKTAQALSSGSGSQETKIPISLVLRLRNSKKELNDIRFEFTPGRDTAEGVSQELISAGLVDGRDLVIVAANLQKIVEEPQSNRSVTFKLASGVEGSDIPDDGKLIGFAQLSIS

[4] = target: T4, panel of 442 kinases (Homo sapiens, UniProt Q12866); conditions: kinase MERTK; for remaining activity at 1 µM: read-out: % of control at 1 µM
T4 construct: purchased Ambit Biosciences (scanMAXX KINOMEscan)
T4 sequence (Q12866 21-999): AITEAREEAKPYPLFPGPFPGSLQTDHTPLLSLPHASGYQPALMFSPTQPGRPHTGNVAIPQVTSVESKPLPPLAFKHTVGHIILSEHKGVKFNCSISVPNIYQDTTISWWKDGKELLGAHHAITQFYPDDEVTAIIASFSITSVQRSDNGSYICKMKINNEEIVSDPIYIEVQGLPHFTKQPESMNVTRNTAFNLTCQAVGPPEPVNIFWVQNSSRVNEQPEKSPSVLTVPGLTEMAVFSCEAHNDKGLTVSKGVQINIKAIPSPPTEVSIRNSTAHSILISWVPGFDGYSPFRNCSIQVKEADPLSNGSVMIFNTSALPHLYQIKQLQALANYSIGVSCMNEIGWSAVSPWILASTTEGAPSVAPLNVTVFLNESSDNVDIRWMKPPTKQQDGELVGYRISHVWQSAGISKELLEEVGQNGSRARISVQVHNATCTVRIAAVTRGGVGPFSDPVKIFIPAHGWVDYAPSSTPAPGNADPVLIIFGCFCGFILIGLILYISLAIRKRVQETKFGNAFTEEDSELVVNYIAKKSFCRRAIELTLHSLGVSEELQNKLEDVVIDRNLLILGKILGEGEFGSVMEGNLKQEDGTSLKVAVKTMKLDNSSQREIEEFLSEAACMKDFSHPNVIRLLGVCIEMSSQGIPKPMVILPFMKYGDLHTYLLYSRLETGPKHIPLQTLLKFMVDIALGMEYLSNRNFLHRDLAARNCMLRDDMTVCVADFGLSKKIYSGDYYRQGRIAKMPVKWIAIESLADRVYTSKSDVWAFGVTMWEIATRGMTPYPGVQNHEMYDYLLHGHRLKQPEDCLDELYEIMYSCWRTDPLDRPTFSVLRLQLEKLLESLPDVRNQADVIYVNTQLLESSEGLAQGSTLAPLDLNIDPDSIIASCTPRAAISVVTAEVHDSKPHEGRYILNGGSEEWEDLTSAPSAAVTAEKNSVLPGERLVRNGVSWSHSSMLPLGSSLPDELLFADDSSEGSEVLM

[5] = target: T5, panel of 442 kinases (Homo sapiens, UniProt Q96SB4); conditions: kinase SRPK1; for remaining activity at 1 µM: read-out: SRPK1 (% of control at 1 µM)
T5 construct: purchased Ambit Biosciences (scanMAXX KINOMEscan)
T5 sequence (Q96SB4 whole entry): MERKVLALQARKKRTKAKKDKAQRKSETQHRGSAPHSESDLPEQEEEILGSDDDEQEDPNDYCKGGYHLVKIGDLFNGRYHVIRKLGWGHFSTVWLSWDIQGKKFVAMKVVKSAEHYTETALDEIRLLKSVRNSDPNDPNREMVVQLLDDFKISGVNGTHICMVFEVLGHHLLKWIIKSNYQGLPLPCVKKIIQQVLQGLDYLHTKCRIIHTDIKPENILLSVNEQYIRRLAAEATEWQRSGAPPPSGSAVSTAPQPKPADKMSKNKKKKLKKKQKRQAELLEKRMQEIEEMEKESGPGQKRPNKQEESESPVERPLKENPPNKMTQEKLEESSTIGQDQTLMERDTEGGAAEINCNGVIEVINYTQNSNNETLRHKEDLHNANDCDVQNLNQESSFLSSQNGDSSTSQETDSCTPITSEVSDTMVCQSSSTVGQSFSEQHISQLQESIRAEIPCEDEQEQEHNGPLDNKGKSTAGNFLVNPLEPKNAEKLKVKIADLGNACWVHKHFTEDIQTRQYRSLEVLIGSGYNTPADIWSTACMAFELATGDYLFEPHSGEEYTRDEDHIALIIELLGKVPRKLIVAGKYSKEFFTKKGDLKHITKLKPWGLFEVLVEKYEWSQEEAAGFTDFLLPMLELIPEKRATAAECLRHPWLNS

[6] = target: T6, panel of 442 kinases (Homo sapiens, UniProt Q8N5S9); conditions: CAMKK1; for remaining activity at 1 µM: read-out: % of control at 1 µM
T6 construct: purchased Ambit Biosciences (scanMAXX KINOMEscan)
T6 sequence (Q8N5S9 whole entry): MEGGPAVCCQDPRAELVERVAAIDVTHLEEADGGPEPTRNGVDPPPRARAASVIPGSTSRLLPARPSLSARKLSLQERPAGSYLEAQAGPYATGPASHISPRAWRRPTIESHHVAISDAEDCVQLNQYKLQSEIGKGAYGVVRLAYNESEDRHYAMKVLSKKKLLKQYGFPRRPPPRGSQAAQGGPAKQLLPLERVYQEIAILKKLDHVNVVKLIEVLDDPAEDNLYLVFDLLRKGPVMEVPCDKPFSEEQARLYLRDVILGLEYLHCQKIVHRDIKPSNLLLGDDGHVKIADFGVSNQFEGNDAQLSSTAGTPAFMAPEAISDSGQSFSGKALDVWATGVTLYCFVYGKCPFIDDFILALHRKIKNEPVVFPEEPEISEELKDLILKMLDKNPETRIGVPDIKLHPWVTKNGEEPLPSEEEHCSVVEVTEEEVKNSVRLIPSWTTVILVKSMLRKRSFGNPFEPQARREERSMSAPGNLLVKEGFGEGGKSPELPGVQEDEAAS

[7] = target: T7, panel of 442 kinases (Homo sapiens, UniProt P80192); conditions: kinase MLK1; for remaining activity at 1 µM: read-out: % of control at 1 µM
T7 construct: purchased Ambit Biosciences (scanMAXX KINOMEscan)
T7 sequence (P80192 whole entry): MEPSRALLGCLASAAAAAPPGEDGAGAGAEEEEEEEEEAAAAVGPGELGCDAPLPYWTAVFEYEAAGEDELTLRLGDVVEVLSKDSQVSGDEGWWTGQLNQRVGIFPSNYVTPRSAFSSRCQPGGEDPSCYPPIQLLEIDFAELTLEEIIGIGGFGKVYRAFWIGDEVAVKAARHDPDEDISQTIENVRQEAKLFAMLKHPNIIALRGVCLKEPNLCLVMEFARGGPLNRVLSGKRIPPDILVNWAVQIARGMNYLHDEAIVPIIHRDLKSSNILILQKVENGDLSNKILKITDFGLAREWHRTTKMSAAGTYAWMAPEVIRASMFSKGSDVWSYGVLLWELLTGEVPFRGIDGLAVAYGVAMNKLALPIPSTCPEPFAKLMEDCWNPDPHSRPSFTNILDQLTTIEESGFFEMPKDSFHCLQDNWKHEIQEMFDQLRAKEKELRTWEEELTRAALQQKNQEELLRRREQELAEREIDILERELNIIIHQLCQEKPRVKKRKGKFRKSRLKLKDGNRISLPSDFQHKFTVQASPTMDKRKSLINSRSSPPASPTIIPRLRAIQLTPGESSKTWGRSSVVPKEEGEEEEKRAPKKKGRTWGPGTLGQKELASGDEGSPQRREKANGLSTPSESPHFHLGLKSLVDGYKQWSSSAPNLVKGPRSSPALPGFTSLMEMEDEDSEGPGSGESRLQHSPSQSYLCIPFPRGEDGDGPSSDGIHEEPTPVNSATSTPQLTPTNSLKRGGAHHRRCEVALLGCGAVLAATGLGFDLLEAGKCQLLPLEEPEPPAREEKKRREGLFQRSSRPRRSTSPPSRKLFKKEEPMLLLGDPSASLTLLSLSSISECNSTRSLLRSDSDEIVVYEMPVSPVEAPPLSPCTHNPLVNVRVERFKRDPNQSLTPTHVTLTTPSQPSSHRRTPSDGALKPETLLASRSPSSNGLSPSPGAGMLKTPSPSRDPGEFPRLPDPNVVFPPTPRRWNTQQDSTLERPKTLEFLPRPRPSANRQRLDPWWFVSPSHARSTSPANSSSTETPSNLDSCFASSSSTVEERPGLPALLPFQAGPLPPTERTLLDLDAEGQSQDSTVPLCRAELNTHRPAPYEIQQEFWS

[8] = target: T8, panel of 442 kinases (Homo sapiens, UniProt P00533, G719S); conditions: EGFR(G719S); for remaining activity at 1 µM: read-out: % of control at 1 µM
T8 construct: purchased Ambit Biosciences (scanMAXX KINOMEscan)
T8 sequence (P00533 25-1210 G719S): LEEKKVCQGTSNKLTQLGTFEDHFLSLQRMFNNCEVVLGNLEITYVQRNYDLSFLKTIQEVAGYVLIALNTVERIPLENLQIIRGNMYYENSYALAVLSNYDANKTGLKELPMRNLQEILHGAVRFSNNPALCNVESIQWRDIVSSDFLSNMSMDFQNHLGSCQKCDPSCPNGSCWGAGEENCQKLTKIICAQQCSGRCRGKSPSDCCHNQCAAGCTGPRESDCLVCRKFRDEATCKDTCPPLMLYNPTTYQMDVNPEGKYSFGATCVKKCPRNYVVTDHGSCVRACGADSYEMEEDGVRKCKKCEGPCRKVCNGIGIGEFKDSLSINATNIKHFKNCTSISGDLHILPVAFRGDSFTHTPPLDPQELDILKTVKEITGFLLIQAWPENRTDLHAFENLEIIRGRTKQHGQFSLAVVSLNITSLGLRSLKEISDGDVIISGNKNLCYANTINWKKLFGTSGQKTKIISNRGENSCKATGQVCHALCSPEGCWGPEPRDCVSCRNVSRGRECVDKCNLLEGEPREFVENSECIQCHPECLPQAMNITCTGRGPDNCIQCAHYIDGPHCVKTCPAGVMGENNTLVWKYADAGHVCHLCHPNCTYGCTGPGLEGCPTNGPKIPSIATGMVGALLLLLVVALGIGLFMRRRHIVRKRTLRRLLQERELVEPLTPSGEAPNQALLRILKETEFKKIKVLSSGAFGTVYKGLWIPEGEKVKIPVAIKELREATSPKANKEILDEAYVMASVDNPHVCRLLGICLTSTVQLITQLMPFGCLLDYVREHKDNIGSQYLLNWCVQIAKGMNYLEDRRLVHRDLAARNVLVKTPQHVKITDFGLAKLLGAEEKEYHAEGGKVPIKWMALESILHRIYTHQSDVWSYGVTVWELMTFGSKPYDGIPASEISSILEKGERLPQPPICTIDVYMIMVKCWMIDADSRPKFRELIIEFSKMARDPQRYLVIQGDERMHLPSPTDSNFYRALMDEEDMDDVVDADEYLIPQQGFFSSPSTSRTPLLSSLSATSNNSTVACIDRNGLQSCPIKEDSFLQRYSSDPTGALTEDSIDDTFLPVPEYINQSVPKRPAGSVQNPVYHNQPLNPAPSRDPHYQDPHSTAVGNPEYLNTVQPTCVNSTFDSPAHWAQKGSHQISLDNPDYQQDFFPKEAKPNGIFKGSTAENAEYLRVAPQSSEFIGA

[9] = target: T9, panel of 442 kinases (Homo sapiens, UniProt P19784); conditions: CSNK2A2; for remaining activity at 1 µM: read-out: % of control at 1 µM
T9 construct: purchased Ambit Biosciences (scanMAXX KINOMEscan)
T9 sequence (P19784 whole entry): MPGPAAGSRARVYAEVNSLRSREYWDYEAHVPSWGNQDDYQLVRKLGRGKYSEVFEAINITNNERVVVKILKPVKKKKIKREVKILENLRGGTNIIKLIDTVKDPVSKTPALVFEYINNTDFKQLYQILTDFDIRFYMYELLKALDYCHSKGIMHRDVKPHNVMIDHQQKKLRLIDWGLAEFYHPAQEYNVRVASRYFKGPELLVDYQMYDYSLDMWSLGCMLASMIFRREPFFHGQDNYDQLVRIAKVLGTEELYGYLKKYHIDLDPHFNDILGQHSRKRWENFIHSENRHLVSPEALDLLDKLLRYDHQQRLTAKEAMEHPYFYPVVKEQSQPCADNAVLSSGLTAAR

[10] = 10 µM, read-out: % of control at 10 µM

T1 sequence (Q86UX6 whole entry): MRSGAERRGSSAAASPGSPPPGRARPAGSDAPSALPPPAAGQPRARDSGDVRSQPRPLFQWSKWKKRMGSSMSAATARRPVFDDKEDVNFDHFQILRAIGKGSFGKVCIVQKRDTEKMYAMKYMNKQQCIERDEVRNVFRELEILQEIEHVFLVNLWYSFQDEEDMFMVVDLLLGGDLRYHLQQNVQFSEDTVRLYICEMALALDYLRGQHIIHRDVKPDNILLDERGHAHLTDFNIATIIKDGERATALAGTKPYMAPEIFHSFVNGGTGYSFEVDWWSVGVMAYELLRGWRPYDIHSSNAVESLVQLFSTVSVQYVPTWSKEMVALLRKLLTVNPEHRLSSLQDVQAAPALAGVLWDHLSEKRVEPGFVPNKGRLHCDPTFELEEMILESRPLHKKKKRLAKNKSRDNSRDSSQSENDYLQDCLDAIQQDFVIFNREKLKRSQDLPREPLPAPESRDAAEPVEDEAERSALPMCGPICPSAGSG

Row | Compound | remaining activity at 1 µM [1] [%] | remaining activity at 10 µM ([1]; 10 µM, read-out: YANK3 (% of control at 10 µM)) [%] | remaining activity at 1 µM [2] [%] | remaining activity at 10 µM [2, 10] [%] | remaining activity at 1 µM [3] [%] | remaining activity at 10 µM [3, 10] [%] | remaining activity at 1 µM [4] [%] | remaining activity at 10 µM [4, 10] [%] | remaining activity at 1 µM [5] [%] | remaining activity at 10 µM ([5]; 10 µM, read-out: SRPK1 (% of control at 10 µM)) [%] | remaining activity at 1 µM [6] [%] | remaining activity at 10 µM [6, 10] [%] | remaining activity at 1 µM [7] [%] | remaining activity at 10 µM [7, 10] [%] | remaining activity at 1 µM [8] [%] | remaining activity at 10 µM [8, 10] [%] | remaining activity at 1 µM [9] [%] | remaining activity at 10 µM [9, 10] [%]
1 | Nc1cc(C(F)(F)F)c(-c2cc(N3CCOCC3)nc(N3CCOCC3)n2)cn1 [Buparlisib] | 94 | 100 | 100 | 100 | 97 | 100 | 98 | 95 | 100 | 100 | 100 | 100 | 92 | 99 | 100 | 95 | 84 | 75
2 | Cn1c(=O)n(-c2ccc(C(C)(C)C#N)cc2)c2c3cc(-c4cnc5ccccc5c4)ccc3ncc21 [Dactolisib, 2-methyl-2-[4-(3-methyl-2-oxo-8-quinolin-3-yl-2,3-dihydroimidazo[4,5-c]quinolin-1-yl)-phenyl] propionitrile] | 88 |  | 100 |  | 91 |  | 80 |  | 88 |  | 79 |  | 86 |  | 99 |  | 99 | 
3 | COc1ncc(-c2ccc3nccc(-c4ccnnc4)c3c2)cc1NS(=O)(=O)c1ccc(F)cc1F [Omipalisib] | 100 |  | 100 |  | 100 |  | 100 |  | 100 |  | 100 |  | 100 |  | 78 |  | 75 | 
4 | FC(F)c1nc2ccccc2n1-c1nc(N2CCOCC2)nc(N2CCOCC2)n1 [ZSTK474, 2-(difluoromethyl)-1-[4,6-di(4-morpholinyl)-1,3,5-triazin-2-yl]-1H-benzimidazole] | 73 |  | 100 |  | 82 |  | 84 |  | 67 |  | 100 |  | 99 |  | 100 |  | 88 | 

Source: publication PMC5564600 (Oncotarget, 2017)
